Data: patent US8435987B2, “Pyrazolo-pyridinone and pyrazolo-pyrazinone compounds as P38 modulators and methods of use thereof” (Amgen Inc., priority 2007, dated 2013)
Read-outs that look alike come from different tables or passages of the source.

Columns and labels:
[1] = test system: production of IL-1β, IL-6, and TNF-α by PBMC activated with bacterial lipopolysaccharide (LPS); experiment: Lipopolysaccharide-activated PBMC cytokine production assay; type: cell-based; conditions: LPS 100 ng/mL, 18 hours
Protocol: Lipopolysaccharide-Activated PBMC Cytokine Production Assay
Test compounds were evaluated in vitro for the ability to inhibit the production of IL-1β, IL-6, and TNF-α by PBMC activated with bacterial lipopolysaccharide (LPS). Fresh leukocytes were obtained from a local blood bank, and peripheral blood mononuclear cells (PBMCs) were isolated by density gradient centrifugation on Ficol-Paque Plus (Pharmacia).
Preparation of Test Compound Stock Solutions
All reagents were prepared in RPMI 1640+10% v/v human AB serum+1×Pens/Strep/Glu (assay medium). Test compounds were dissolved in 100% DMSO and serially diluted in 96-well polypropylene round bottom micro titer plates (drug plate). Serial dilutions were then diluted 1:250 into assay medium to a 4× working concentration. […]
LPS was prepared to a 4× concentration in assay medium. […] After 18 hours culture supernatants were removed and IL-1β, IL-6, and TNF-α presence in the supernatants was quantified using MSD ECL based technology.
20 μL of culture supernatant were added to MSD plates, and incubated for one hour at room temperature. 20 μL of detection antibody diluted in antibody diluent (1 μg/mL), and 110 μL of 2× Read Buffer P was added, and incubated for one hour at RT. Electrochemiluminescence was measured using the SECTOR HTS Imager (MSD, Gaithersburg, Md.). […]

[2] = test system: secreted IL-8 by whole blood activated with TNF-α; experiment: Inhibition of TNF-α induced IL-8 in 50% human whole blood; type: cell-based
Protocol: Inhibition of TNF-α Induced IL-8 in 50% Human Whole Blood
Test compounds were evaluated in vitro for the ability to inhibit the production of secreted IL-8 by whole blood activated with TNF-α. Fresh human whole blood was obtained from healthy, non-medicated volunteers in sodium heparin tubes.
Compound Dilution—Assay Procedure
Test compounds are serially diluted 1:3 in DMSO and then diluted 1:250 into R10 (RPMI 1640, 10% human serum AB, 1× pen/strep/glutamine) to the 4× working concentration to be used in the assay. 100 ul heparinized whole blood is plated into wells of 96 well flat bottom plates. 50 ul of either 4× compound or DMSO control (Final DMSO concentration is 0.1%) are added to the appropriate wells. Plates are incubated for 1 hour at 37 degrees Celsius. 50 ul of 4× TNF-α (4 nM TNF-α, for a final concentration of 1 nM) or control (media alone) is added to the appropriate wells (Total volume=200 ul). Plates are incubated overnight (16-18 hours). 100 ul of supernatant is collected and stored in 96-well round bottom polypropylene plates at −80 degrees Celsius or assayed immediately for IL-8.
Cytokines are measured on antibody (Ab) sandwich ECL based 96-well detection plates. 20 ul of supernatant are added to plate and plate is sealed and shaken at RT for 1 hour. 130 ul of detection Ab cocktail is added and plates are sealed and shaken for 1 hour in the dark at RT. Plates are read on MSD Sector HTS instrument. Data are analyzed and IC50 values generated using Activity Base and Xl-fit programs.

[3] = 50% human whole blood, TNF-α (1 nM final) induced IL-8, 16-18 hours, read-out: WB TNF/IL8 IC50
[4] = Homo sapiens, read-out: IC50, TNF-α induced IL-8 in 50% human whole blood

| IC50 [2, 3] | IC50 [2, 4] | SMILES | IC50 [1] |
| --- | --- | --- | --- |
| 1.1 nM | ≤ 100 nM | Cc1ccc2c(NC3CC3)noc2c1-c1cc2cnn(-c3c(F)cccc3F)c2n(C)c1=O [Example 1, 5-(3-(cyclopropylamino)-6-methylbenzo[d]isoxazol-7-yl)-1-(2,6-difluorophenyl)-7-methyl-1H-pyrazolo[3,4-b]pyridin-6(7H)-one] | ≤ 100 nM |
| 2.7 nM | ≤ 100 nM | CNc1noc2c(-c3cc4cnn(-c5c(F)cccc5F)c4n(C)c3=O)c(C)ccc12 [Example 5, 1-(2,6-difluorophenyl)-7-methyl-5-(6-methyl-3-(methylamino)-1,2-benzisoxazol-7-yl)-1,7-dihydro-6H-pyrazolo[3,4-b]pyridin-6-one] | ≤ 100 nM |
